Values quoted from earlier work in article PMC12736226, “Acid Versus Amide—Facts and Fallacies: A Case Study in Glycomimetic Ligand Design” (Molecules, 2025).

target: T1, E-selectin (Homo sapiens, UniProt P16581); assay: microscale thermophoresis (MST); type: binding; details: affinity data also reported in Ref. 25; read-out: Affinity KD MST [μM] (95% CI)
T1 construct: gene SELE; soluble extracellular lectin-domain fragment with Ca2+
T1 sequence (P16581 22-301): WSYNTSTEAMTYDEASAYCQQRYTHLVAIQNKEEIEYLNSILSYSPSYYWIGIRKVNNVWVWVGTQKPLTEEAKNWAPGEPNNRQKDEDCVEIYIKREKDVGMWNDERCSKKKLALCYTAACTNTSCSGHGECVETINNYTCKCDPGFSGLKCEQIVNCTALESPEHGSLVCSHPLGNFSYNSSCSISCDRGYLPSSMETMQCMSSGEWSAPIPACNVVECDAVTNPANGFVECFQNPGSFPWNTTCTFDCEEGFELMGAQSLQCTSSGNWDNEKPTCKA
Description: microscale thermophoresis (MST) on E-selectin

Question: Which Kd does the source give for C[C@@H]1O[C@@H](O[C@@H]2CCCC[C@H]2O[C@@H]2O[C@H](CO)[C@H](O)[C@H](O[C@@H](CC3CCCCC3)C(N)=O)[C@H]2O)[C@@H](O)[C@H](O)[C@@H]1O [3a] here?
Answer: 166 µM

Question: For CNC(=O)[C@H](CC1CCCCC1)O[C@H]1[C@@H](O)[C@@H](CO)O[C@@H](O[C@@H]2CCCC[C@H]2O[C@@H]2O[C@@H](C)[C@@H](O)[C@@H](O)[C@@H]2O)[C@@H]1O [3b], which Kd is on record?
Answer: 112 µM

Question: With CCNC(=O)[C@H](CC1CCCCC1)O[C@H]1[C@@H](O)[C@@H](CO)O[C@@H](O[C@@H]2CCCC[C@H]2O[C@@H]2O[C@@H](C)[C@@H](O)[C@@H](O)[C@@H]2O)[C@@H]1O [3c] as the molecule, how does the Kd read?
Answer: 109 µM

Question: Which Kd does the source give for C[C@@H]1O[C@@H](O[C@@H]2CCCC[C@H]2O[C@@H]2O[C@H](CO)[C@H](O)[C@H](O[C@@H](CC3CCCCC3)C(=O)N(C)C)[C@H]2O)[C@@H](O)[C@H](O)[C@@H]1O [3d] here?
Answer: 34.6 µM

Question: Which Kd does the source give for C[C@@H]1O[C@@H](O[C@@H]2CCCC[C@H]2O[C@@H]2O[C@H](CO)[C@H](O)[C@H](O[C@@H](CC3CCCCC3)C(=O)N3CCCC3)[C@H]2O)[C@@H](O)[C@H](O)[C@@H]1O [3e] here?
Answer: 21.4 µM

Question: For C[C@@H]1O[C@@H](O[C@@H]2CCCC[C@H]2O[C@@H]2O[C@H](CO)[C@H](O)[C@H](O[C@@H](CC3CCCCC3)C(=O)N3CCC3)[C@H]2O)[C@@H](O)[C@H](O)[C@@H]1O [3f], which Kd is on record?
Answer: 17 µM

Question: For C[C@@H]1O[C@@H](O[C@@H]2CCCC[C@H]2O[C@@H]2O[C@H](CO)[C@H](O)[C@H](O[C@@H](CC3CCCCC3)C(=O)N3CC(c4ccccc4)C3)[C@H]2O)[C@@H](O)[C@H](O)[C@@H]1O [3h], which Kd is on record?
Answer: 16.2 µM

Question: With C[C@@H]1O[C@@H](O[C@@H]2CCCC[C@H]2O[C@@H]2O[C@H](CO)[C@H](O)[C@H](O[C@@H](CC3CCCCC3)C(=O)N3CC(C)(C)C3)[C@H]2O)[C@@H](O)[C@H](O)[C@@H]1O [3i] as the molecule, how does the Kd read?
Answer: 38.2 µM

Question: For CC(=O)N[C@H]1[C@H]([C@H](O)[C@H](O)CO)O[C@@](O[C@H]2[C@@H](O)[C@@H](CO)O[C@@H](O[C@H]3[C@H](O[C@@H]4O[C@@H](C)[C@@H](O)[C@@H](O)[C@@H]4O)[C@@H](NC(C)=O)C(O)O[C@@H]3CO)[C@@H]2O)(C(=O)O)C[C@@H]1O (stereo partly drawn) [compound 1, Sialyl Lewis^x], which Kd is on record?
Answer: 873 µM
